Test results published in ChEMBL document CHEMBL1201862, “PubChem BioAssay data set” (2004).
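Growth conditions: 96-well plates. Treatment: test compound, 48 hours, 5 concentrations. Analysis: linear interpolation between bracketing concentrations; unreached endpoints set to highest concentration. GI50: concentration for 50% inhibition of growth.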 Activity calls are given as the source filed them. No stated cut-off is given here; in the data, active = GI50 up to about 1.1 µM and inactive = higher.

Legend:
Test in all cases: inhibition of tumour cell growth, NCI panel, 48 h
A549 = system: A549
IGROV-1 = system: IGROV-1
SNB-19 = system: SNB-19
SF-295 = system: SF-295
EKVX = system: EKVX
HT-29 = system: HT-29
SN12C = system: SN12C
KM12 = system: KM12
MOLT-4 = system: MOLT-4
DLD-1 = system: DLD-1
LXFL 529 = system: LXFL 529
NCI-H460 = system: NCI-H460
OVCAR-5 = system: OVCAR-5
NCI-H226 = system: NCI-H226
XF498 = system: XF498
HCT-15 = system: HCT-15
OVCAR-4 = system: OVCAR-4
NCI-H23 = system: NCI-H23
NCI-H522 = system: NCI-H522
SK-MEL-28 = system: SK-MEL-28
HCT-116 = system: HCT-116
UACC-257 = system: UACC-257
HCC 2998 = system: HCC 2998
SW-620 = system: SW-620
SK-MEL-2 = system: SK-MEL-2
A498 = system: A498
UACC-62 = system: UACC-62
Malme-3M = system: Malme-3M
HOP-62 = system: HOP-62
SNB-75 = system: SNB-75
SK-OV-3 = system: SK-OV-3
U-251 = system: U-251
SK-MEL-5 = system: SK-MEL-5
K562 = system: K562
OVCAR-3 = system: OVCAR-3
TK-10 = system: TK-10
ACHN = system: ACHN
HOP-92 = system: HOP-92
DMS-273 = system: DMS-273
CCRF-CEM = system: CCRF-CEM
M19-MEL = system: M19-MEL
HL-60 = system: HL-60
M14 = system: M14
UO-31 = system: UO-31
COLO 205 = system: COLO 205
KM-20L2 = system: KM-20L2
LOX IMVI = system: LOX IMVI
SF-268 = system: SF-268
786-0 = system: 786-0
CAKI-1 = system: CAKI-1
SF-539 = system: SF-539
OVCAR-8 = system: OVCAR-8
RPMI-8226 = system: RPMI-8226
SR = system: SR
SNB-78 = system: SNB-78

In the case of `Cc1cc(Cl)ccc1C1OC(=O)c2c1ccc1ccccc21` (stereo unspecified), the GI50 (A549) is reported as > 100 µM (inactive), the GI50 (IGROV-1) is reported as > 100 µM (inactive) and the GI50 (SNB-19) is reported as > 100 µM (inactive). For the same compound, the GI50 (SF-295) was > 100 µM (inactive), the GI50 (EKVX) was > 100 µM (inactive) and the GI50 (HT-29) was > 100 µM (inactive). For the same compound, the GI50 (SN12C) was > 100 µM (inactive), the GI50 (KM12) was > 100 µM (inactive) and the GI50 (MOLT-4) was > 100 µM (inactive). The GI50 (DLD-1) was > 100 µM (inactive), the GI50 (LXFL 529) was 74.1 µM (inactive) and the GI50 (NCI-H460) was > 100 µM (inactive). For the same compound, the GI50 (OVCAR-5) was > 100 µM (inactive), the GI50 (NCI-H226) was > 100 µM (inactive) and the GI50 (XF498) was > 100 µM (inactive). The GI50 (HCT-15) was over 100 µM, the GI50 (OVCAR-4) was 23.6 µM (inactive) and the GI50 (NCI-H23) was > 100 µM (inactive). The GI50 (NCI-H522) was > 100 µM (inactive), the GI50 (SK-MEL-28) was > 100 µM (inactive) and the GI50 (HCT-116) was > 100 µM (inactive). For the same compound, the GI50 (UACC-257) was > 100 µM (inactive), the GI50 (HCC 2998) was > 100 µM (inactive) and the GI50 (SW-620) was > 100 µM (inactive). The GI50 (SK-MEL-2) was > 100 µM (inactive), the GI50 (A498) was > 100 µM (inactive) and the GI50 (UACC-62) was > 100 µM (inactive). The GI50 (Malme-3M) was > 100 µM (inactive), the GI50 (HOP-62) was > 100 µM (inactive) and the GI50 (SNB-75) was 29.9 µM (inactive). The GI50 (SK-OV-3) was > 100 µM (inactive), the GI50 (U-251) was > 100 µM (inactive) and the GI50 (SK-MEL-5) was 58.2 µM (inactive). The GI50 (K562) was > 100 µM (inactive), the GI50 (OVCAR-3) was > 100 µM (inactive) and the GI50 (TK-10) was > 100 µM (inactive). For the same compound, the GI50 (ACHN) was > 100 µM (inactive), the GI50 (HOP-92) was > 100 µM (inactive) and the GI50 (DMS-273) was > 100 µM (inactive). The GI50 (CCRF-CEM) was > 100 µM (inactive), the GI50 (M19-MEL) was > 100 µM (inactive) and the GI50 (HL-60) was > 100 µM (inactive). For the same compound, the GI50 (M14) was > 100 µM (inactive), the GI50 (UO-31) was > 100 µM (inactive) and the GI50 (COLO 205) was > 100 µM (inactive). The GI50 (KM-20L2) was > 100 µM (inactive), the GI50 (LOX IMVI) was > 100 µM (inactive) and the GI50 (SF-268) was > 100 µM (inactive). For the same compound, the GI50 (786-0) was 97.5 µM (inactive), the GI50 (CAKI-1) was > 100 µM (inactive) and the GI50 (SF-539) was > 100 µM (inactive). The GI50 (OVCAR-8) was > 100 µM (inactive) and the GI50 (RPMI-8226) was > 100 µM (inactive).
For `CCCCN/C(=N/C#N)NCc1ccccc1`, the GI50 (A549) was > 100 µM (inactive), the GI50 (IGROV-1) was > 100 µM (inactive) and the GI50 (SNB-19) was > 100 µM (inactive). For the same compound, the GI50 (SF-295) was > 100 µM (inactive), the GI50 (EKVX) was > 100 µM (inactive) and the GI50 (HT-29) was > 100 µM (inactive). The GI50 (SN12C) was > 100 µM (inactive), the GI50 (SR) was > 100 µM (inactive) and the GI50 (KM12) was > 100 µM (inactive). For the same compound, the GI50 (MOLT-4) was > 100 µM (inactive), the GI50 (DLD-1) was > 100 µM (inactive) and the GI50 (LXFL 529) was > 100 µM (inactive). The GI50 (NCI-H460) was > 100 µM (inactive), the GI50 (OVCAR-5) was > 100 µM (inactive) and the GI50 (NCI-H226) was > 100 µM (inactive). The GI50 (XF498) was > 100 µM (inactive), the GI50 (HCT-15) was over 100 µM and the GI50 (OVCAR-4) was > 100 µM (inactive). For the same compound, the GI50 (NCI-H23) was > 100 µM (inactive), the GI50 (NCI-H522) was > 100 µM (inactive) and the GI50 (SK-MEL-28) was > 100 µM (inactive). For the same compound, the GI50 (HCT-116) was > 100 µM (inactive), the GI50 (HCC 2998) was 88.5 µM (inactive) and the GI50 (SW-620) was > 100 µM (inactive). For the same compound, the GI50 (SNB-78) was > 100 µM (inactive), the GI50 (SK-MEL-2) was > 100 µM (inactive) and the GI50 (A498) was > 100 µM (inactive). For the same compound, the GI50 (UACC-62) was > 100 µM (inactive), the GI50 (Malme-3M) was > 100 µM (inactive) and the GI50 (HOP-62) was > 100 µM (inactive). The GI50 (SNB-75) was 42.8 µM (inactive), the GI50 (SK-OV-3) was > 100 µM (inactive) and the GI50 (U-251) was > 100 µM (inactive). The GI50 (SK-MEL-5) was > 100 µM (inactive), the GI50 (OVCAR-3) was > 100 µM (inactive) and the GI50 (TK-10) was > 100 µM (inactive). The GI50 (ACHN) was > 100 µM (inactive), the GI50 (HOP-92) was > 100 µM (inactive) and the GI50 (DMS-273) was > 100 µM (inactive). For the same compound, the GI50 (CCRF-CEM) was > 100 µM (inactive), the GI50 (M19-MEL) was > 100 µM (inactive) and the GI50 (HL-60) was > 100 µM (inactive). The GI50 (M14) was > 100 µM (inactive), the GI50 (UO-31) was > 100 µM (inactive) and the GI50 (COLO 205) was > 100 µM (inactive). The GI50 (KM-20L2) was > 100 µM (inactive), the GI50 (LOX IMVI) was > 100 µM (inactive) and the GI50 (SF-268) was > 100 µM (inactive). For the same compound, the GI50 (786-0) was > 100 µM (inactive), the GI50 (CAKI-1) was > 100 µM (inactive) and the GI50 (SF-539) was > 100 µM (inactive). For the same compound, the GI50 (OVCAR-8) was > 100 µM (inactive) and the GI50 (RPMI-8226) was > 100 µM (inactive).
